Measurements as given in patent publication US6593331B2, “Method for treatment of pain” (Laboratories UPSA, priority 2001, dated 2003).

What was measured:
albino rats = test: rat hindpaw thermal escape paradigm (hindpaw withdrawal test for analgesia, acute pain); format: in vivo; details: for analgesic effect of co-administration with acetaminophen compared to either compound given alone: hydroxyazapirone 5 mg/kg + acetaminophen 300 mg/kg, ip; for hindpaw thermal escape response/latency compared to vehicle (saline+PETW): n=5-8 rats per group
Source text: To assess the thermally evoked paw-withdrawal response, a commercially available device was used. Specifics of device construction and operation have been published previously (Dirig D M, Salami A, Rathbun M L, Ozaki G T, Yaksh T L. Characterization of variables defining hindpaw withdrawal latency evoked by radiant thermal stimuli. J Neurosci Methods. Oct. 3, 1997; 76(2):183-91). This device is comprised of a glass surface on which the rats were placed individually in Plexiglas cubicles (9×22×25 cm). The surface is maintained at 30° C. by a feedback-controlled, under-glass, forced-air heating system. The thermal nociceptive stimulus originates from a projection bulb below the glass that can be manipulated in a two-dimensional axis on ball bearing slides. This apparatus allows the stimulus to be delivered separately to each hind paw with the aid of an angled mirror mounted on the stimulus source. A timer is actuated with the light source, and escape latency is defined as the time between stimulus onset and the display of a brisk paw withdrawal (detected by photodiode motion sensors that stops the timer and terminates the stimulus; cut-off time for a non-response is 20 sec which triggers automatic termination of the stimulus). In the present study, animals are placed in test boxes for 30 min acclimation and then baseline escape latency is assessed separately for each hindpaw (left and right) at −15 min. All drugs are delivered at 0 min by the intraperitoneal (i.p.) route in a volume of 3 ml/kg. The vehicle for 6-hydroxybuspirone was 0.9% sodium chloride (Saline). For 3-hydroxygepirone the vehicle was deionized H2O plus a few drops of hydrochloric acid. For acetaminophen (Sigma, A7085) the vehicle was 40% polyethylene glycol 400 (PEG-400), 10% EtOH, 15% Tween 80, and 35% deionized H2O (PETW). Acetaminophen was disolved sequentially in two parts: 1) first into a solution of 80% PEG 400+20% EtOH, and 2) then slowly added to it was an equal volume of 30% Tween 80+70% deionized H2O (sonicated as needed). Each animal received two injections at time zero. Specifically, animals were tested in one of the following 6 treatment conditions (abbreviations used in figures are shown under “Key” below):
Following drug administration, thermal escape latencies are measured at 15, 30, 60, 90 and 120 min (mean of both paws is used for statistical analysis).

mouse = mouse hot plate test (procedure of Eddy, et al.); format: in vivo; details: 6-hydroxybuspirone to acetaminophen weight ratios of 1:3, 1:10 and 1:30
[1] = hydroxyazapirone alone, 5 mg/kg ip
[2] = acetaminophen alone, 300 mg/kg ip

| Structure (SMILES) | time of peak analgesic effect post injection (albino rats; 3-hydroxygepirone alone, 5 mg/kg ip) | analgesic effect of co-administration with acetaminophen compared to either compound given alone (albino rats) | hindpaw thermal escape response/latency compared to vehicle (saline+PETW) (albino rats; [1]) | potentiation of acetaminophen in hot plate test (mouse) | time of peak analgesic effect post injection (albino rats; [2]) | hindpaw thermal escape response/latency compared to vehicle (saline+PETW) (albino rats; [2]) |
| --- | --- | --- | --- | --- | --- | --- |
| CC1(C)CC(=O)N(CCCCN2CCN(c3ncccn3)CC2)C(=O)C1O (centres unmarked) [3-hydroxygepirone, 4,4-Dimethyl-3-hydroxy-1-[4-[4-(2-pyrimidinyl)-1-piperazinyl]butyl]-2,6-piperidinedione] | 120 min | analgesic enhancing effect | elevated significantly above vehicle |  |  |  |
| O=C1CC2(CCCC2)C(O)C(=O)N1CCCCN1CCN(c2ncccn2)CC1 (centres unmarked) [6-hydroxybuspirone, 6-Hydroxy-8-[4-[4-(2-pyrimidinyl)-piperazinyl]-butyl]-8-azaspiro[4.5]-7,9-dione] |  | analgesic enhancing effect | elevated significantly above vehicle | potentiation of acetaminophen |  |  |
| CC(=O)Nc1ccc(O)cc1 [acetaminophen, reference compound] |  |  |  |  | 120 min | elevated significantly above vehicle |
